Among the data in patent US20240383899A1, “MODIFIED CARBAPENEM ANTIBIOTICS WITH IMPROVED ACTIVITY AGAINST KPC CARBAPENEMASE-PRODUCING ENTEROBACTERALES” (priority 2023, published 2024) are MIC values, retold here.

Values after ≈ are worked out from the molar mass of the structure shown. Like-named read-outs stand apart in the source and are kept apart here.

Common to all, as to experiment: In vitro activity (MIC) against Gram-negative aerobic bacteria
Type in all cases: cell-based

Test [1] relates to Acinetobacter baumannii MMX 2599.
The subject of test [2] is Klebsiella pneumoniae MMX 4683 (CDC ART2008030); ESBL, KPC-2.
Test [3] deals with Acinetobacter baumannii MMX 2587; MDR.
Test [4] concerns Citrobacter freundii MMX 6284.
Test [5] concerns Klebsiella pneumoniae MMX 6854; ESBL.
Test [6] deals with Acinetobacter baumannii ATCC 19606.
Test [7] concerns Serratia marcescens MMX 6462.
For test [8], the system named is Proteus mirabilis MMX 6442.
For test [9], the system named is Enterobacter cloacae MMX 6089.
Test [10] concerns Klebsiella pneumoniae MMX 4885; KPC.

As usually defined, the MIC is the lowest concentration found to suppress growth. For the molecule `COc1c(N2C[C@@H]3CCCN[C@@H]3C2)c(F)cc2c(=O)c(C(=O)O)cn(C3CC3)c12` [MOX, moxifloxacin], the MIC in test [1] (MMX2599, read-out: MIC) is 0.12 µg/mL (≈ 0.299 µM); in [2] (read-out: MIC), over 4 µg/mL; in test [3] (read-out: MIC), over 4 µg/mL; in test [4] (MMX6284, read-out: MIC), over 4 µg/mL; in test [5] (read-out: MIC), 0.5 µg/mL (≈ 1.25 µM); in test [6] (ATCC19606, read-out: MIC), 0.25 µg/mL (≈ 0.623 µM). Further, the MIC in test [7] (MMX6462, read-out: MIC) is 0.12 µg/mL (≈ 0.299 µM); in test [8] (MMX6442, read-out: MIC), 0.25 µg/mL (≈ 0.623 µM); in test [9] (MMX6089, read-out: MIC), 0.03 µg/mL (≈ 0.0747 µM); in [10] (read-out: MIC), over 4 µg/mL.
Take `C[C@@H](O)[C@H]1C(=O)N2C(C(=O)O)=C(S[C@@H]3CN[C@H](C(=O)N(C)C)C3)[C@H](C)[C@H]12` [MEM, meropenem]: the MIC in [1] (MMX2599, read-out: MIC) was 0.25 µg/mL (≈ 0.652 µM); in test [2] (read-out: MIC), over 8 µg/mL; in test [3] (read-out: MIC), over 8 µg/mL; in [4] (MMX6284, read-out: MIC), over 8 µg/mL; in test [5] (read-out: MIC), 0.25 µg/mL (≈ 0.652 µM); in test [6] (ATCC19606, read-out: MIC), 2 µg/mL (≈ 5.22 µM). Also, the MIC is 0.25 µg/mL (≈ 0.652 µM) in [7] (MMX6462, read-out: MIC); 0.12 µg/mL (≈ 0.313 µM) in test [8] (MMX6442, read-out: MIC); 0.06 µg/mL (≈ 0.156 µM) in test [9] (MMX6089, read-out: MIC); over 8 µg/mL in [10] (read-out: MIC).
As to colistin, the MIC in test [1] is 2 µg/mL; in test [2], 0.12 µg/mL; in [3], 1 µg/mL; in test [4], 0.12 µg/mL; in test [5], 0.25 µg/mL; in test [6], 0.5 µg/mL. Moreover, the MIC in test [7] is over 32 µg/mL; in test [8], over 32 µg/mL; in test [9], 0.12 µg/mL; in [10], 8 µg/mL.
For `Cc1ncc([N+](=O)[O-])n1CCO` [MET, metronidazole], the MIC was over 32 µg/mL in test [1] (MMX2599, read-out: MIC); over 32 µg/mL in test [2] (read-out: MIC); over 32 µg/mL in [3] (read-out: MIC); over 32 µg/mL in [4] (MMX6284, read-out: MIC); over 32 µg/mL in test [5] (read-out: MIC); over 32 µg/mL in test [6] (ATCC19606, read-out: MIC). In addition, the MIC is over 32 µg/mL in test [7] (MMX6462, read-out: MIC); over 32 µg/mL in [8] (MMX6442, read-out: MIC); over 32 µg/mL in test [9] (MMX6089, read-out: MIC); over 32 µg/mL in [10] (read-out: MIC).
As to `CC(C)(O/N=C(\C(=O)N[C@@H]1C(=O)N2C(C(=O)[O-])=C(C[n+]3ccccc3)CS[C@H]12)c1csc(N)n1)C(=O)O` [CAZ, ceftazidime], the MIC was 8 µg/mL (≈ 14.6 µM) in test [1] (MMX2599, read-out: MIC); over 32 µg/mL in test [2] (read-out: MIC); over 32 µg/mL in test [3] (read-out: MIC); over 32 µg/mL in test [4] (MMX6284, read-out: MIC); 0.5 µg/mL (≈ 0.915 µM) in test [5] (read-out: MIC); 8 µg/mL (≈ 14.6 µM) in test [6] (ATCC19606, read-out: MIC). The MIC is 0.25 µg/mL (≈ 0.457 µM) in test [7] (MMX6462, read-out: MIC); at most 0.03 µg/mL in test [8] (MMX6442, read-out: MIC); 32 µg/mL (≈ 58.5 µM) in test [9] (MMX6089, read-out: MIC); over 32 µg/mL in test [10] (read-out: MIC).
Take `C[C@H](O)[C@H]1C(=O)N2C(C(=O)O)=C(S[C@@H]3CN[C@H](C(=O)N(C)C)C3)[C@H](C)[C@H]12` [JDB-1-200, (4R,5S,6S)-3-(((3S,5S)-5-(dimethylcarbamoyl)pyrrolidin-1-ium-3-yl)thio)-6-((S)-1-hydroxyethyl)-4-methyl-7-oxo-1-azabicyclo[3.2.0]hept-2-ene-2-carboxylate]: the MIC in test [1] (MMX2599, read-out: MIC) came to 0.12 µg/mL (≈ 0.313 µM); in [2] (read-out: MIC), 1 µg/mL (≈ 2.61 µM); in test [3] (read-out: MIC), 32 µg/mL (≈ 83.4 µM); in test [4] (MMX6284, read-out: MIC) it was 1 µg/mL (≈ 2.61 µM); in test [5] (read-out: MIC) it was 0.5 µg/mL (≈ 1.3 µM); in test [6] (ATCC19606, read-out: MIC) it was 0.5 µg/mL (≈ 1.3 µM). For the same molecule, the MIC in test [7] (MMX6462, read-out: MIC) came to 0.5 µg/mL (≈ 1.3 µM); in [8] (MMX6442, read-out: MIC) it was 1 µg/mL (≈ 2.61 µM); in test [9] (MMX6089, read-out: MIC), 0.12 µg/mL (≈ 0.313 µM); in test [10] (read-out: MIC), 0.5 µg/mL (≈ 1.3 µM).
On to `CN[C@H](CC(C)C)C(=O)N[C@H]1C(=O)N[C@@H](CC(N)=O)C(=O)N[C@H]2C(=O)N[C@H]3C(=O)N[C@H](C(=O)N[C@H](C(=O)O)c4cc(O)cc(O)c4-c4cc3ccc4O)[C@H](O)c3ccc(c(Cl)c3)Oc3cc2cc(c3O[C@@H]2O[C@H](CO)[C@@H](O)[C@H](O)[C@H]2O[C@H]2C[C@](C)(N)[C@H](O)[C@H](C)O2)Oc2ccc(cc2Cl)[C@H]1O` [VAN, vancomycin], for which the MIC in test [1] (MMX2599, read-out: MIC) is over 32 µg/mL; in test [2] (read-out: MIC) it was over 32 µg/mL; in test [3] (read-out: MIC), over 32 µg/mL; in test [4] (MMX6284, read-out: MIC) it was over 32 µg/mL; in test [5] (read-out: MIC) it was over 32 µg/mL; in test [6] (ATCC19606, read-out: MIC), over 32 µg/mL. Moreover, the MIC in test [7] (MMX6462, read-out: MIC) is over 32 µg/mL; in [8] (MMX6442, read-out: MIC), over 32 µg/mL; in test [9] (MMX6089, read-out: MIC), over 32 µg/mL; in test [10] (read-out: MIC), over 32 µg/mL.
